A value given as a limit tells only on which side of the number the result lay.

Sequence of Glycogen synthase kinase-3 beta (P49841 whole entry): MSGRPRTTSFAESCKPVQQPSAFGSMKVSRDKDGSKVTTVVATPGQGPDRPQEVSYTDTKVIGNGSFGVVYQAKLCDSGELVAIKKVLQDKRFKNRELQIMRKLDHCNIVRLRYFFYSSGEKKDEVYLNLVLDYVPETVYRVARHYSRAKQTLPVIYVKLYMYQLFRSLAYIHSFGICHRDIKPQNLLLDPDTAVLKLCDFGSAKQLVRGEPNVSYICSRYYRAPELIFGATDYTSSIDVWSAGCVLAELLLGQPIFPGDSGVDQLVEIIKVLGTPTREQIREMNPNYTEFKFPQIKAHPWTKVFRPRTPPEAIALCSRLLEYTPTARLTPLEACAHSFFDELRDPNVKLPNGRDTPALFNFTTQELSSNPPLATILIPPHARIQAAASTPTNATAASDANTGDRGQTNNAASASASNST

This assay has as its target Glycogen synthase kinase-3 beta (Homo sapiens, UniProt P49841). Nature of the assay: concentration-response blocking of human GSK3B – biochemical, luminescence, cell-free homogeneous, retest, dose response (AID 434954).
`CCC(C)NCCOCCOc1ccc(Cl)cc1Br` (centres undefined) [N-[2-[2-(2-bromo-4-chlorophenoxy)ethoxy]ethyl]-2-butanamine;oxalic acid] showed an EC50 of over 300 µM.

As for `Nc1nc(NCCCN2CCOCC2)nc(Nc2ccccc2)c1[N+](=O)[O-]` [SMR000219678], a half-maximal effect (EC50) was put at 2.24 µM.

As for `COc1ccc(CNC(=O)CN(Cc2ccco2)C(=O)CCC(=O)Nc2ccccn2)cc1` [SMR000600509], the EC50 was over 300 µM.

On to `O=C(NCC(c1cccs1)N1CCOCC1)c1ccccc1NS(=O)(=O)c1ccc(Cl)cc1` (centres undefined) [SMR000242318], for which the EC50 is over 300 µM.

Consider `Nc1nonc1-n1nnc(C(=O)NN=Cc2cccc(F)c2)c1CN1CCCC1` [MLS000948239], for which the EC50 was over 300 µM.

Take `CC1CCCCC1NC(=O)CN(C)S(=O)(=O)c1cccc2cccnc12` (centres undefined) [N-(2-methylcyclohexyl)-2-[methyl(quinolin-8-ylsulfonyl)amino]acetamide]: the EC50 was over 300 µM.

As to `CCc1nnc(NC(=O)c2cccc(OC)c2)s1` [MLS000104553], the EC50 was over 300 µM.

`CN(c1ccccc1C(=O)Nc1cccc(C(F)(F)F)c1)S(C)(=O)=O` [MLS000096933] gave an EC50 of over 300 µM.

`O=C(O)c1cc(-c2ccc(C=NNC(=S)Nc3ccccc3)o2)ccc1Cl` [5-[5-[[[anilino(sulfanylidene)methyl]hydrazinylidene]methyl]-2-furanyl]-2-chlorobenzoic acid] registered an EC50 of over 300 µM.

`COc1ccccc1Nc1nc(N(C)c2ccccc2)nc(N)c1[N+](=O)[O-]` [SMR000542836] registered an EC50 of over 300 µM.

For `O=C(O)c1cc(C2CC2)nc2ccccc12` [2-cyclopropyl-4-quinolinecarboxylic acid], the EC50 was over 300 µM.

On to `O=C(Nc1ccc(O)c2c(=O)cc(-c3ccccc3Cl)oc12)c1cccc(Cl)c1`, for which the EC50 amounted to 87.4 µM.

`O=C(COc1ccc(S(=O)(=O)N2CCCC2)cc1Cl)Nc1ccc2c(c1)OCO2` [MLS000052177] displayed an EC50 of over 300 µM.

As to `Clc1ccccc1CSc1nnc(-c2ccncc2)o1` [2-{[(2-chlorophenyl)methyl]sulfanyl}-5-(pyridin-4-yl)-1,3,4-oxadiazole], the midpoint of the response, the EC50, lay at 4.85 µM.

For the compound `CCOc1ccc2nc(NC(=O)CSc3nc4cccnc4n3C)sc2c1`, a half-maximal effect (EC50) was put at 1.25 µM.

Turning to `Nc1nc(NCCOCCO)nc(Nc2cccc(F)c2)c1[N+](=O)[O-]` [2-[2-[[4-azanyl-6-[(3-fluorophenyl)amino]-5-nitro-pyrimidin-2-yl]amino]ethoxy]ethanol], the midpoint of the response, the EC50, lay at 10.7 µM.

In turn, `Cc1[nH]nc2c1C(c1cccs1)C1C(=O)CCCC1=N2` (centres undefined) [MLS001003570] showed an EC50 of 10.6 µM.

Regarding `O=C(NCCCn1ccnc1)c1ccco1`, the EC50 is over 300 µM.

With `CCN(CCNC(=O)CN(C)S(=O)(=O)c1cccc2nsnc12)c1ccccc1`, the EC50 is over 300 µM.

Turning to `O=C(COc1ccccc1)Nc1ccc2c(c1)C(=O)N(CC1CCCO1)C2=O` (centres undefined) [SMR000291909], the EC50 was over 300 µM.

For `Cc1n[nH]c(O)c1N=Nc1ccc(S(N)(=O)=O)cc1` [4-[2-(3-methyl-5-oxopyrazol-4-yl)hydrazinyl]benzenesulfonamide], it took 36.6 µM to reach a half-maximal effect (EC50).

On to `O=c1[nH]c(N=NCc2ccccc2)nc2ccccc12` [MLS000571403], for which the EC50 was over 300 µM.

In turn, `N#CC1=C2SCN(Cc3ccccc3)CN2C(=O)CC1c1cccs1` (centres undefined) yielded an EC50 of 7.88 µM.

Consider `Clc1cccc(CNc2nc(-c3cccnc3)nc3ccccc23)c1` [N-[(3-chlorophenyl)methyl]-2-(3-pyridinyl)-4-quinazolinamine], for which the EC50 was over 300 µM.

`O=C(Nc1nnc(-c2cc(Cl)ccc2Cl)o1)c1ccco1` came in with an EC50 of over 300 µM.

`COC(CNC(=O)CCc1c(C)nc2c(c(C)nn2-c2ccc(C)cc2)c1C)OC` [N-(2,2-dimethoxyethyl)-3-[3,4,6-trimethyl-1-(4-methylphenyl)pyrazolo[3,4-b]pyridin-5-yl]propanamide] came in with an EC50 of over 300 µM.

On to `O=C(NC1CCCCCC1)C1CCCN(S(=O)(=O)c2cccs2)C1` (centres undefined) [N-cycloheptyl-1-thiophen-2-ylsulfonylpiperidine-3-carboxamide], for which the EC50 was over 300 µM.

Regarding `O=C(Nc1ccc(O)c2c(=O)cc(-c3ccccc3Cl)oc12)c1ccc(Cl)cc1Cl`, the EC50 came to 9.16 µM.

For the compound `COc1ccc(C=C2SC(Nc3ccccc3)=NC2=O)cc1` [5-(4-Methoxy-benzylidene)-2-phenylimino-thiazolidin-4-one], the 50% effective concentration (EC50) was over 300 µM.

In the case of `O=C(NN=CC1=CC(=O)C(=O)CC1)NN=CC1=CC(=O)C(=O)CC1` [1,3-bis[[(Z)-(3-hydroxy-4-oxocyclohexa-2,5-dien-1-ylidene)methyl]amino]urea], the EC50 amounted to 13.3 µM.

Compound `COc1ccc(/C=C2/Sc3ccc(C(=O)NCCCN4CCOCC4)cc3NC2=O)cc1OC` [(2E)-2-[(3,4-dimethoxyphenyl)methylidene]-N-[3-(4-morpholinyl)propyl]-3-oxo-4H-1,4-benzothiazine-6-carboxamide] gave an EC50 of 60.3 µM.

`CC1=C(C#N)C(=O)NC(=O)C1=NNc1ccc(Br)cc1C(=O)O` [MLS001213177] came in with a half-maximal effective concentration (EC50) of over 300 µM.

The compound `OC[C@H]1O[C@@H](n2cnc3c(O)ncnc32)[C@H](O)[C@@H]1O` [Atorel] registered an EC50 of over 300 µM.

`O=C(/[O+]=N/[CH-]c1ccc(N2CCCCC2)c([N+](=O)[O-])c1)c1cccc(Cl)c1` [[(3-nitro-4-piperidin-1-yl-phenyl)methylideneamino] 3-chloranylbenzoate] displayed an EC50 of over 300 µM.

Compound `O=C(O)CCn1cc(/C=C\C(=O)c2ccc(Cl)cc2)c(-c2cccc(Br)c2)n1` [3-[3-(3-bromophenyl)-4-[(Z)-3-(4-chlorophenyl)-3-oxoprop-1-enyl]pyrazol-1-yl]propanoic acid] registered an EC50 of over 300 µM.

The compound `CCN(CC)Cc1c(C(=O)NN=Cc2ccco2)nnn1-c1nonc1N` [1-(4-amino-1,2,5-oxadiazol-3-yl)-5-(diethylaminomethyl)-N-(2-furanylmethylideneamino)-4-triazolecarboxamide] had an EC50 of 119 µM.

`Nc1nc(NCC2CCCO2)nc(NCC2CCCO2)c1[N+](=O)[O-]` (centres undefined) returned a concentration for a half-maximal effect (EC50) of 12.2 µM.

Compound `Cc1cc(C(=O)c2ccccc2)c(NC(=O)CN2CCOCC2)s1` [N-[5-methyl-3-(phenylcarbonyl)thiophen-2-yl]-2-morpholin-4-yl-ethanamide] registered an EC50 of over 300 µM.

`CCCC(NC(=O)Cc1c(C)c2c(cc(C)c3c(C)coc32)oc1=O)C(=O)O` (centres undefined) [2-[[2-(3,4,9-trimethyl-7-oxofuro[2,3-f]chromen-8-yl)acetyl]amino]pentanoic acid] returned an EC50 of over 300 µM.

The compound `OCCNc1nc(-c2cccnc2)nc2ccccc12` [MLS000107346] registered an EC50 of over 300 µM.

Regarding `CC1CCCC(NC(=O)C2CCN(C(=O)Nc3ccccc3)CC2)C1C` (centres undefined) [N4-(2,3-dimethylcyclohexyl)-N1-phenyl-piperidine-1,4-dicarboxamide], the EC50 is over 300 µM.

Consider `COc1ccc(C(=O)c2sc(Nc3ccc(NC(C)=O)cc3)nc2C)cc1` [N-{4-[5-(4-Methoxy-benzoyl)-4-methyl-thiazol-2-ylamino]-phenyl}-acetamide], for which the EC50 was over 300 µM.

Consider `NS(=O)(=O)c1cc(C(=O)NNC2=c3ccccc3=NC2=O)ccc1Cl` [2-chloro-5-[[(2-oxoindol-3-yl)amino]carbamoyl]benzenesulfonamide], for which the response was half-maximal at 43.9 µM (EC50).

Compound `CCOC(=O)c1ccc2ncc(C(=O)OCC)c(Nc3ccc(N4CCOCC4)cc3)c2c1` [diethyl 4-[(4-morpholin-4-ylphenyl)amino]quinoline-3,6-dicarboxylate] returned an EC50 of over 300 µM.

A word on the EC50: it is the concentration needed to bring the measured effect to its halfway point. A higher EC50 goes with a need for much substance.
